Source: US10913734B2, “Substituted aminothiazoles” (BARUCH S. BLUMBERG INSTITUTE, priority 2016, dated 2021)

Tests used:
[1] = MTT cell viability / cytotoxicity assay (CC50), 72 hours; type: cell-based; details: human, 72 hours incubation, concentration that reduces signal of viable cells by 50%, table title names Huh-7, THLE2 and PH5CH cells, cell line not given
Source text: (§1) Huh-7 cells and derived from hepatocellular carcinoma cells, and were donated by Dr. Xuanyong Lu, (Drexel University College of Medicine, Doylestown, Pa.). THLE-2 were purchased from American Type Culture Collection (Manassas, Va.). PH5CH were donated by Dr. Masayuki Noguchi (University of Tsukuba, Ibaraki, Japan). THLE-2 and PH5CH have been immortalized through stable transfection of the SV40 large T antigen in normal hepatocytes, and are thus cell lines that are representative of normal hepatocytes rather than HCC cells. […] All cell lines were cultured and maintained in 5% CO2 at 37° C. Huh-7 were maintained in the culture media DMEM/F12 (Dulbecco's Modified Eagle Medium) with 10% Fetal bovine serum (FBS), 100 µg/mL penicillin, 100 units/mL streptomycin, and 50 µg/mL normocin. THLE-2 and PH5CH were maintained in the culture media Brochial Epithelial Growth Media (BEGM) with 10% FBS, 100 µg/mL penicillin, 100 units/mL streptomycin, with the following additives form the prepackaged kit: Bovine pituitary extract (BPE), insulin, hydrocortisone, retinoic acid, transferrin, triiodothyronine, supplemented with 5 ng/ml human epidermal growth factor and 70 ng/ml phosphoethanolamine (Lonza Walkersville Inc., Walkersville, Md.).
(§2) Huh7 cells were plated on 96-well plates at 2.0×10^4 cells per well to permit grow in the presence of compounds of the disclosure. Compounds of the disclosure were prediluted and transferred to cell plates by automated liquid handling. Cells were incubated with compounds of the disclosure for 72 hours, after which culture growth and viability were assessed by addition of 50 µg/mL 3-(4,5-Dimethyl-2-thiazolyl)-2,5-diphenyl-2H-tetrazolium bromide (MTT) incubation for 4 hours at 37° C. Solubilization buffer (0.01M HCl, 10% SDS) was added followed by incubation at 37° C. overnight. Absorbance was measured at 570 nm (reference 630 nm). Compound of the disclosure were tested in Huh7, THLE-2 and PH5CH, over eight-point dilutions in half-log steps, testing 50.0, 16.6, 5.0, 1.66, 0.5, 0.166, 0.05, and 0.016 µM in 0.5% DMSO, with each concentration in duplicate wells. […] Each compound was tested from 2 to 7 times in separate assay trials.

[2] = system: THLE2 and/or PH5CH (normal hepatocyte-derived) cell versus Huh7; experiment: Selectivity of cytotoxicity: CC50 in normal hepatocyte-derived cells versus liver cancer derived cells (MTT assay); type: cell-based; details: ratio of CC50 between Huh7 and THLE2 and/or PH5CH (normal hepatocyte-derived) cell
Source text: as §1
as §2, with “nm).” for “nm). Compound of the disclosure were tested in Huh7, THLE-2 and PH5CH, over eight-point dilutions in half-log steps, testing 50.0, 16.6, 5.0, 1.66, 0.5, 0.166, 0.05, and 0.016 µM in 0.5% DMSO, with each concentration in duplicate wells.”
Selectivity of toxicity in HCC-derived cells over normal liver-derived cells is important for the purposes of developing a therapy that specifically targets the cancer with low toxcity for the […]. The Selective Index (SI) is the ratio of CC50 in normal cells (THLE2 or PHSCH) over the CC50 in the liver cancer derived cells; thus, the higher the number, the lower the potential toxicity at an efficacious dose.
Selectivity in table 6 is defined as the ratio of CC50 between Huh7 and THLE2 and/or PH5CH (normal hepatocyte-derived) cell.

| Structure (SMILES) | CC50 at 72 h [1] | Selectivity [2] |
| --- | --- | --- |
| CCOCc1sc(Nc2ncccn2)nc1-c1ccccn1 [Entry 6] | < 50 µM | >5.0 |
| CCOC(=O)c1sc(Nc2ncccn2)nc1-c1ccncn1 [Entry 23] | < 50 µM | >5.0 |
| O=C([O-])CCc1sc(NCc2ncccn2)nc1-c1ccccn1.[Na+] [Entry 14] |  | ≤5.0 |
| CC(C)OC(=O)c1sc(Nc2ncccn2)nc1-c1ccccn1 [Entry 21] | < 50 µM | >5.0 |
| CCOCc1sc(NCc2ncccn2)nc1-c1ccccn1 [Entry 8] | ≥ 50 µM | ≤5.0 |
| O=C([O-])CCc1sc(Nc2ncccn2)nc1-c1ccccn1.[Na+] [Entry 12] |  | ≤5.0 |
| CCOC(=O)Cc1sc(Nc2nccc(C)n2)nc1-c1ccccn1 [Entry 18] | < 50 µM | ≤5.0 |
| CCOC(=O)c1sc(NCc2ncccn2)nc1-c1ncccc1C [Entry 5] | ≥ 50 µM | ≤5.0 |
| CCOC(=O)c1sc(Nc2ncccn2)nc1-c1cnccn1 [Entry 20] | < 50 µM | >5.0 |
| CC(C)OC(=O)c1sc(Nc2ncccn2)nc1-c1ncccn1 [Entry 19] | < 50 µM | >5.0 |
| CCOC(=O)Cc1sc(Nc2ncccn2)nc1-c1ccccn1 [Entry 15] | < 50 µM | >5.0 |
| CCOCc1sc(Nc2nccc(C)n2)nc1-c1ccccn1 [Entry 7] | < 50 µM | ≤5.0 |
| CCOC(=O)c1sc(NCc2ncccn2)nc1-c1ccccn1 [Entry 17] | ≥ 50 µM | ≤5.0 |
| c1ccc(-c2csc(NCc3ncccn3)n2)nc1 [Entry 2] | < 50 µM | ≤5.0 |
| O=C(Nc1ncccn1)Nc1nc(-c2ccccn2)cs1 [Entry 3] | ≥ 50 µM | ≤5.0 |
| CC(C)OC(=O)c1sc(N(COP(=O)(OC(C)(C)C)OC(C)(C)C)c2ncccn2)nc1-c1ccccn1 [Entry 27] | < 50 µM | >5.0 |
| CCOC(=O)c1sc(Nc2ncccn2)nc1-c1cc(C(F)(F)F)ccn1 [Entry 24] | < 50 µM | >5.0 |
| CCOC(=O)Cc1sc(NCc2ncccn2)nc1-c1ccccn1 [Entry 16] | < 50 µM | ≤5.0 |
| CC(C)OC(=O)c1sc(N(COP(=O)(OC(C)(C)C)OC(C)(C)C)c2ncccn2)nc1-c1cnccn1 [Entry 28] | < 50 µM | >5.0 |
| O=C(O)CCc1sc(Nc2ncccn2)nc1-c1ccccn1 [Entry 11] | < 50 µM | ≤5.0 |
| CCOC(=O)CCc1sc(NCc2ncccn2)nc1-c1ccccn1 [Entry 10] | ≥ 50 µM | ≤5.0 |
| CC(C)OC(=O)C1=C(c2ccncn2)NC(Nc2ncccn2)S1 (stereo not drawn) [Entry 22] | < 50 µM | >5.0 |
| O=C(O)CCc1sc(NCc2ncccn2)nc1-c1ccccn1 [Entry 13] | ≥ 50 µM | ≤5.0 |
| CC(C)OC(=O)OCN(c1ncccn1)c1nc(-c2cnccn2)c(C(=O)OC(C)C)s1 [Entry 26] | < 50 µM | >5.0 |
| CCOC(=O)c1sc(Nc2nccc(C)n2)nc1-c1ncccc1C [Entry 4] | ≥ 50 µM | ≤5.0 |
| CCOC(=O)CCc1sc(Nc2ncccn2)nc1-c1ccccn1 [Entry 9] | < 50 µM | >5.0 |
| CC(C)OC(=O)c1sc(Nc2ncccn2)nc1-c1cnccn1 [Entry 25] | < 50 µM | >5.0 |
| COCCOCN(c1ncccn1)c1nc(-c2cnccn2)c(C(=O)OC(C)C)s1 [Entry 29] | ≥ 50 µM | ≤5.0 |
